Experimental data reported in patent US7807844B2, “TGF-β gene expression inhibitor” (Nihon University, priority 2003, dated 2010).

Experiments:
hTGF-β1 promoter [1] = assay: Transient transfection and luciferase assay in hVSMC; type: cell-based, human; settings: for expression of luciferase driven by hTGF-β1 promoter: 10^−9 M, 24 hr incubation
Method: One microgram of the luciferase gene which was controlled by the hTGF-β1 promoter was transfected for 6 hr in sterilized medium using lipofectin reagent. After 24 hr of the transfection, cells were incubated for 24 hr in a medium containing 0.5% CS in the presence (or absence) of the polyamide or the mismatched polyamide, and the luciferase activity was assayed in these cells extracts using a dual luciferase/reporter gene assay system. One hundred μL of luciferase substrate was mixed with 20 μL cell extracts. After the mixing, the reaction mixture was placed in a luminometer (Turner Designs-Bioblock, Illkirch, France), and the light emitted for ten seconds at room temperature was measured. PMA was used as a positive control. Comparison with the control *P<0.05.
(§1) The 2.2 kb fragment containing the hTGF-β1 promoter derived from plasmid phTBG 101 (non-patent document 10) was isolated and inserted to pGL3 basic plasmid (Promega, Madison, Wis.) at the upstream of the coding region of luciferase reporter gene. The accurate structure of the constructed plasmid was identified by spectral analysis with restriction enzymes analysis and sequencing.
hVSMC cells were cultured at a density of […] in 24 well plates in the presence of 10% CS. After 24 hr, the reporter gene that was driven by the hTGF-β1 promoter was transfected using Lipofectin reagent (GibcoBRL) in the presence of 1 μg DNA in the sterilized medium, according to the method indicated by the manufacturer. Cells were incubated with the DNA liposome complex for 6 hours, and then the medium was exchanged to 1 ml of fresh complete medium. […] After brief centrifugation, luciferase activity in the cell extracts was measured using a dual-luciferase reporter gene assay system (Promega, Madison, Wis.). […] After mixing, the reaction mixture was placed in a luminometer (Turner Designs-Bioblock, Illkirch, France), and the light emitted for ten seconds at room temperature was measured.

hTGF-β1 mRNA = assay: RT-PCR assay of hTGF-β1 mRNA in hVSMC; type: cell-based, human; settings: for expression of hTGF-β1 mRNA: 10^−9 M, 24 hr, TPA induced
Method: Treatment with 50 ng/mL of TPA was used as a positive control. […] (A) Five microliters of PCR product was separated on a 1.5% agarose gel electrophoresis. […] Cultured cells were washed with PBS, dissolved in 800 μL of RNAzolB (Biotex Laboratories, Inc., Houston, Tex.), mixed with 80 μL of chloroform and centrifuged. The colorless upper aqueous phase was mixed with an equal volume of isopropanol to precipitate RNA. RNA pellet was washed twice with 500 μL of 75% ethanol and, after drying, dissolved in 10 μL of TE buffer. After denaturing at 65° C. for 15 min, the RNA sample was treated with 0.5 U DNase (Gibco) in 0.5 ml of DNase buffer (20 mM Tris-HCl pH 8.3, 50 mM KCl, 2.5 mM MgCl2) at room temperature for 45 min. DNase was denatured by adding 0.5 ml of 0.5M EDTA and heating at 98° C. for 10 min. RNA aliquots of an equal amount (1 μg/20 μL) were reverse transcribed to single stranded cDNAs using 2.5 U/20 μL of avian myeloblastosis virus reverse transcriptase (Takara Biochemicals, Osaka, Japan) in 10 mM Tris-HCl (pH 8.3), 5 mM MgCl2, 50 mM KCl, 1 mM deoxy NTPs and 2.5 μM random hexamers. Two microliters of the diluted cDNA product was made up to 25 μl by mixing with 10 mM Tris-HCl (pH 8.3), 50 mM KCl, 4 mM MgCl2, 0.025 U/μL Taq DNA polymerase (Takara Biochemicals, Osaka, Japan), and 0.2 μM each of the upstream sense primer and downstream antisense primer. […] For human 18S ribosomal RNA, the sense primer ([…] NO: 6) and the antisense primer ([NT] ID NO: 7) were used as the internal control. PCR was carried out with an automatic heat controller (Perkin Elmer, Foster, Calif.). The PCR conditions were: initial denaturation, at 94° C. for 2 min; 30 cycles of denaturation at 94° C. for 1 min, annealing at 58° C. for 1 min and extension at 72° C. for 1 min; last extension at 72° C. for 1 min. As an internal control, PCR with primers for 18S rRNA was included in each reaction. […] For semi-quantitative analysis of mRNA, the kinetics of PCR was monitored. […] The intensity of the bands was measured by computer analysis using NIH software.

[2] = test system: double stranded oligonucleotide corresponding to the base pairs from −548 to −537 of hTGF-β1 promoter; assay: Gel-shift assay: binding of polyamide to double stranded oligonucleotide; parameters: species or system human; settings: binding buffer, 37° C., 15 min; 20% polyacrylamide gel, autoradiography
Method: The double stranded DNA corresponding to the base pair sequence from −548 to −537 of the hTGF-β1 promoter (FIG. 1) was labeled by T4 polynucleotide using [γ-^32P]-ATP and incubated in a binding buffer at 37° C. for 15 min together with mismatch polyamide (lane 0) or with increasing amount of the polyamide (lane 1, 2 and 3 was 1 nM, 2 nM and 4 nM, respectively). The complexes thus obtained were electrophoresed on a 20% polyacrylamide gel and visualized by autoradiography.
Oligonucleotides were synthesized, annealed, and 12 kinds of double stranded oligonucleotides were produced corresponding to the base pairs from −548 to −537 of hTGF-β1 promoter (FIG. 1A). The double stranded DNAs were labeled with [γ-^32P]-ATP using T4 polynucleotide kinase, and incubated in a binding buffer (40 mM Tris, pH 7.9, 250 mM NaCl, 25 mM EDTA, 25 mM DTT, 100 mM KCl) with the polyamides or mismatched polyamides at 37° C. for 15 min. The complexes thus obtained were electrophoresed by 20% polyacrylamide gel and visualized by autoradiography.

hTGF-β1 protein = assay: Western blot analysis of hTGF-β1 protein in hVSMC; type: cell-based, human; settings: 10^−9 M, 24 hr incubation
Method: 10^−9 M of the polyamide was added to medium of cultured hVSMC and incubated for 24 hr. (A) The expression of hTGFβ1 protein was investigated by Western blot analysis.
Test VSMC and control VSMC were incubated in 6-well plates for 24 hr, washed twice with PBS and incubated on ice in 300 μL of lysis buffer (50 mM Tris-HCl (pH 8.0), 150 mM NaCl, 1 mM EDTA, 1 mM phenylmethylsulfonyl fluoride, 1 μg/mL aprotinin, 1% Triton X-100) for 30 min. Cells were scraped into a 1.5 mL tube and centrifuged, and the supernatant was collected. The protein content of the supernatant was assayed by Bradford protein assay using BIO-RAD protein assay kit (Bio-Rad Lab, Hercules, Calif.). The supernatant contained 20 μg of total protein, which was denatured at 100° C. for 3 min in the loading buffer, electrophoresed on a 10% polyacrylamide gel and transferred to a nitrocellulose membrane. The membrane was incubated at room temperature for 1 hr with mouse monoclonal antibody with specificity to hTGF-β1 (1:500) (R&D systems, Minneapolis, Minn.), and then incubated at room temperature for 1 hr with anti-mouse HRP conjugated secondary antibody at 1:2000. After washing sufficiently, the membrane was incubated with an […] luminescence substrate (Amersham Life Service, Buckinghamshire, UK) and exposed to an X-ray film.

hTGF-β1 promoter [3] = assay: In vitro transcription reaction with HeLa nuclear extract; type: biochemical, human; settings: HeLa nuclei extract, hTGF-β1 promoter template, 30° C., 60 min
Method: One microgram of a plasmid was incubated in the transcription buffer with 8 U of HeLa nucleus extract, 3 kinds of non-labeled nucleotide triphosphates (UTP, CTP, GTP) at […] each, and 25 μM α-^32P-ATP at 30° C. for 60 min. The reaction was terminated by adding 175 μl of HeLa extract stop solution, and then phenol-chloroform-isoamyl alcohol extraction and ethanol precipitation were carried out. Samples were re-suspended in 98% […] loading dye and heated at 90° C. for 10 min before loading a 6%, 7 M urea-polyacrylamide gel. The gel was dried and visualized by autoradiography;
as §1
In vitro transcription reactions were carried out using nuclear extracts of Hela cells and the in vitro transcription system (Promega, Madison, Wis.). […]

Method for cultured hVSMC: FITC labeled polyamide was added directly to the culture medium at the concentration of 10^−9 M and observed under a fluorescent microscope.
hVSMC was obtained from Clonetics (Walkersville, Md.). hVSMC was cultured in Dulbecco's modified Eagle's medium (DMEM) containing 10% calf serum (Gibco Life Technologies, Gaithersburg, Md.), 100 U/ml penicillin and 100 mg/ml streptomycin. Cells were passaged by trypsin treatment with 0.05% trypsin (Gibco) in Ca^2+-free and Mg^2+-free phosphate buffered saline (PBS) and cultured in 75-cm^2 tissue culture flasks. The medium was exchanged every four or five days, and experiments were carried out on cells during 5-10 passages.
Passaged hVSMC was cultured at a density of 10^5/cm^2 for 24 hr in a 24-well flask. FITC-labeled polyamides were directly added to the medium at a concentration of 10^−9 M and observed every one hour under a florescent microscope.

Molecule	expression of luciferase driven by hTGF-β1 promoter (positive control) (hTGF-β1 promoter [1]; positive control)	expression of hTGF-β1 mRNA (positive control) (hTGF-β1 mRNA; 50 ng/mL)	binding to the corresponding 12 base pairs double stranded oligonucleotide [2]	expression of luciferase driven by hTGF-β1 promoter (hTGF-β1 promoter [1])	expression of hTGF-β1 protein (hTGF-β1 protein)	expression of hTGF-β1 mRNA (hTGF-β1 mRNA)	transcription in in vitro transcription system (hTGF-β1 promoter [3])	detection of FITC in the nuclei of cultured hVSMC (cultured hVSMC)	time FITC labeled polyamide remains in the nucleus of cultured hVSMC (cultured hVSMC)
CCCCCCCCCCCCCC(=O)O[C@@H]1[C@@H](C)[C@@]2(O)[C@@H](C=C(CO)C[C@]3(O)C(=O)C(C)=C[C@@H]23)[C@H]2C(C)(C)[C@]12OC(C)=O [TPA]	stimulated the expression of luciferase protein	significantly stimulated the expression of hTGF-β1 mRNA							
CC(=O)Nc1cn(C)c(C(=O)Nc2cc(C(=O)Nc3cc(C(=O)NCCC(=O)Nc4cn(C)c(C(=O)Nc5cc(C(=O)Nc6cc(C(=O)NCCCC(=O)Nc7cc(C(=O)Nc8cc(C(=O)Nc9cc(C(=O)NCCC(=O)Nc%10cc(C(=O)Nc%11cc(C(=O)NCCC(=O)O)n(C)c%11)n(C)c%10)n(C)c9)n(C)c8)n(C)c7)n(C)c6)n(C)c5)n4)n(C)c3)n(C)c2)n1 [compound 4b, Ac-IPP-β-IPP-γ-PPP-β-PP-βCOOH]			able to bind	significantly downregulated the expression of luciferase	inhibited the expression of hTGF-β1 protein	inhibited the expression of hTGF-β1 mRNA induced by TPA	reduce transcription		
CN(C)CCCNC(=O)CCNC(=O)c1cc(NC(=O)c2cc(NC(=O)CCNC(=O)c3cc(NC(=O)c4cc(NC(=O)c5cc(NC(=O)CCCNC(=O)c6cc(NC(=O)c7cc(NC(=O)c8nc(NC(=O)CCNC(=O)c9cc(NC(=O)c%10cc(NC(=O)c%11nc(NC(=O)CCNC(=S)Nc%12ccc%13c(c%12)C(=O)OC%13%12c%13ccc(O)cc%13Oc%13cc(O)ccc%13%12)cn%11C)cn%10C)cn9C)cn8C)cn7C)cn6C)cn5C)cn4C)cn3C)cn2C)cn1C [compound 4a, FITC-β-IPP-β-IPP-γ-PPP-β-PP-β Dp]								detected in the nuclei of cultured hVSMC at a high density	more than 48 hr
Ac-PPP-β-IPP-γ-PPP-β-COOH [mismatch polyamide]			failed to bind	had no effect		did not	did not show any significant effect		
